# Numbered stars: 1 amine (or outer) side, 2 acyl side, 3 side chain; on linkers, the order of the positions; unused ones are H or OH. Square brackets hold non-standard residues; d marks the D form. Side chains are listed from the residue outwards. Peptide text beside a SMILES is read from it. * marks the point of attachment. C20 diacid = O=C(O)CCCCCCCCCCCCCCCCCCC(=O)*; γGlu = O=C(O)[C@H](CCC(=O)[*:2])N[*:1]; AEEA = NCCOCCOCC(=O)O; Aib = CC(C)(N)C(=O)O
# Tests used:
# [1] = Turbidity of crude library peptides (absorbance at 600 nm); type: physicochemical; details: Physical stability of peptides
# In short: (§1)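 Turbidity is the absorbance at 600 nm, taken before heating. Fibril signal is the mean ThT emission at 480 nm (450 nm excitation), read every 10 min over 72 h at 40° C with 700 rpm shaking between reads. Peptides at 267 μM, pH 4.0 acetate or pH 7.0 phosphate buffer (50 mM), 4 μM ThT final.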
# [2] = target: GLP1R (Homo sapiens, UniProt P43220); test: hGLP1R potency, cAMP accumulation in CHO-K1 cells stably overexpressing hGLP1R; type: cell-based; design: host or cells: CHO-K1; details: for EC50: cAMP accumulation, CHO-K1 cells overexpressing hGLP1R, read-out: hGLP1R pEC50 (converted); for SCTR EC50/GLP1R EC50 ratio: selectivity for hGLP1R over hSCTR, cAMP accumulation in CHO-K1 cells
# In short: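 EC50 derives from variable-slope nonlinear regression of cAMP HTRF signal, with purified peptides tested as 11 three-fold dilutions in duplicate. Assay: hGLP1R-overexpressing CHO-K1 cells, 0.5 mM IBMX, 0.05% casein in DPBS, 30 min room-temperature stimulation, GLP-1(7-36) as reference agonist.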
# [3] = target: SCTR (Homo sapiens, UniProt P47872); test: hSCTR potency, cAMP accumulation in CHO-K1 cells stably overexpressing hSCTR; type: cell-based; design: alternatively Euroscreen ES-712-AF; FAST-0161L; host or cells: CHO-K1; details: cAMP accumulation, CHO-K1 cells overexpressing hSCTR; read-out: hSCTR pEC50 (converted)
# In short: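 EC50 derived from variable-slope nonlinear regression on 11-point, 3-fold series run in duplicate (crude peptides: 5 points, 10-fold, n=1). Compound stimulation lasted 30 min at room temperature in casein/IBMX-containing DPBS (0.05%, 0.5 mM), 2000 cells/well; cAMP detected by time-resolved FRET after one hour.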
# [4] = Fibril formation of crude library peptides (Thioflavin T); type: physicochemical; design: key: average ThT fluorescence emission at 480 nm (ex 450 nm), raw units; details: Physical stability of peptides
# In short: as §1
# Sequence of SCTR (P47872 23-440): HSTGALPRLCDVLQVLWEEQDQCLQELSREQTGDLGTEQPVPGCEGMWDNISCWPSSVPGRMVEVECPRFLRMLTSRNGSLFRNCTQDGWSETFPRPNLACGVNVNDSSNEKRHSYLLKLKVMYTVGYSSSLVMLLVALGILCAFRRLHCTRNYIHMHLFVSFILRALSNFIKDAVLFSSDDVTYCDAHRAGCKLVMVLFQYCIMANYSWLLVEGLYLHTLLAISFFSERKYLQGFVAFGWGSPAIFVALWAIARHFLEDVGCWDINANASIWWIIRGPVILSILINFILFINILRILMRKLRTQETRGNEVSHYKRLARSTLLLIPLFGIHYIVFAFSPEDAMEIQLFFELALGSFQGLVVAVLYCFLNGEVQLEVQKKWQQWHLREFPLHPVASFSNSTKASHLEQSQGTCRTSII
# Sequence of GLP1R (P43220 24-463): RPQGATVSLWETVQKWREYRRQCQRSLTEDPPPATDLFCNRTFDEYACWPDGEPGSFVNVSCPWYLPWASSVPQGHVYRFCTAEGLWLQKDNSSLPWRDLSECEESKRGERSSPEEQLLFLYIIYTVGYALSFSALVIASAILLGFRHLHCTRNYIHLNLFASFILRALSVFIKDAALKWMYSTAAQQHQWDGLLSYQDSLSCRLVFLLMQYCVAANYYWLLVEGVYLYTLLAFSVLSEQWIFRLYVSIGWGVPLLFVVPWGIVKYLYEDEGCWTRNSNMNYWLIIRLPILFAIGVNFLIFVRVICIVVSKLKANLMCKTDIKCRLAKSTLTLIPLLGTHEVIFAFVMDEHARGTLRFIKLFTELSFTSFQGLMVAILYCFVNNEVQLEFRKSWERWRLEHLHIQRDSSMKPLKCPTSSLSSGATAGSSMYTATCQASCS
SMILES,Turbidity (pH 7) [1],EC50 [2] [nM],SCTR EC50/GLP1R EC50 ratio [2],EC50 [3] [nM],Fibril formation [4]
CC(C)C[C@H](NC(=O)[C@H](Cc1ccccc1)NC(=O)[C@H](CCCNC(=N)N)NC(=O)[C@H](CCC(N)=O)NC(=O)[C@H](CC(C)C)NC(=O)C(C)(C)NC(=O)[C@H](C)NC(=O)[C@H](CCC(=O)O)NC(=O)[C@H](CCC(=O)O)NC(=O)[C@H](CCCCNC(=O)COCCOCCNC(=O)COCCOCCNC(=O)CC[C@H](NC(=O)CCCCCCCCCCCCCCCCCCC(=O)O)C(=O)O)NC(=O)[C@H](CC(C)C)NC(=O)[C@H](Cc1ccc(O)cc1)NC(=O)[C@H](CO)NC(=O)[C@@H](NC(=O)[C@H](CC(=O)O)NC(=O)[C@H](CO)NC(=O)[C@@H](NC(=O)[C@H](Cc1ccccc1)NC(=O)[C@@H](NC(=O)CNC(=O)[C@H](Cc1ccc(O)cc1)NC(=O)C(C)(C)NC(=O)[C@@H](N)Cc1c[nH]cn1)[C@@H](C)O)[C@@H](C)O)C(C)C)C(=O)N[C@@H](CCC(=O)O)C(=O)N[C@@H](Cc1c[nH]cn1)C(=O)N[C@@H](CC(C)C)C(=O)N[C@H](C(N)=O)C(C)C [compound 159] (H-H[Aib]YGTFTSDVSYLK([AEEA-AEEA-γGlu-C20 diacid])EEA[Aib]LQRFLEHLV-NH2),0.08,0.794,34730,25100,5426
CC(C)C[C@H](NC(=O)[C@H](Cc1ccccc1)NC(=O)[C@H](CCCNC(=N)N)NC(=O)[C@H](CCC(N)=O)NC(=O)[C@H](CC(C)C)NC(=O)C(C)(C)NC(=O)[C@H](C)NC(=O)[C@H](CCC(=O)O)NC(=O)[C@H](CCC(=O)O)NC(=O)[C@H](CCCCNC(=O)COCCOCCNC(=O)COCCOCCNC(=O)CC[C@H](NC(=O)CCCCCCCCCCCCCCCCCCC(=O)O)C(=O)O)NC(=O)[C@H](CC(C)C)NC(=O)[C@H](Cc1ccc(O)cc1)NC(=O)[C@H](CO)NC(=O)[C@@H](NC(=O)[C@H](CC(=O)O)NC(=O)[C@H](CO)NC(=O)[C@@H](NC(=O)[C@H](Cc1ccccc1)NC(=O)[C@@H](NC(=O)CNC(=O)[C@H](Cc1c[nH]c2ccccc12)NC(=O)C(C)(C)NC(=O)[C@@H](N)Cc1c[nH]cn1)[C@@H](C)O)[C@@H](C)O)C(C)C)C(=O)N[C@@H](CCC(=O)O)C(=O)N[C@@H](Cc1c[nH]cn1)C(=O)N[C@@H](CC(C)C)C(=O)N[C@H](C(N)=O)C(C)C [compound 160] (H-H[Aib]WGTFTSDVSYLK([AEEA-AEEA-γGlu-C20 diacid])EEA[Aib]LQRFLEHLV-NH2),0.09,0.794,33562,25100,4754
CC(C)C[C@H](NC(=O)[C@H](Cc1ccccc1)NC(=O)[C@H](CCCNC(=N)N)NC(=O)[C@H](CCC(N)=O)NC(=O)[C@@H](NC(=O)C(C)(C)NC(=O)[C@H](C)NC(=O)[C@H](CCC(=O)O)NC(=O)[C@H](CCC(=O)O)NC(=O)[C@H](CCCCNC(=O)COCCOCCNC(=O)COCCOCCNC(=O)CC[C@H](NC(=O)CCCCCCCCCCCCCCCCCCC(=O)O)C(=O)O)NC(=O)[C@H](CC(C)C)NC(=O)[C@H](Cc1ccc(O)cc1)NC(=O)[C@H](CO)NC(=O)[C@@H](NC(=O)[C@H](CC(=O)O)NC(=O)[C@H](CO)NC(=O)[C@@H](NC(=O)[C@H](Cc1ccccc1)NC(=O)[C@@H](NC(=O)CNC(=O)[C@H](CCC(=O)O)NC(=O)C(C)(C)NC(=O)[C@@H](N)Cc1c[nH]cn1)[C@@H](C)O)[C@@H](C)O)C(C)C)C(C)C)C(=O)N[C@@H](CCC(=O)O)C(=O)N[C@@H](Cc1c[nH]cn1)C(=O)N[C@@H](CC(C)C)C(=O)N[C@H](C(N)=O)C(C)C [compound 161] (H-H[Aib]EGTFTSDVSYLK([AEEA-AEEA-γGlu-C20 diacid])EEA[Aib]VQRFLEHLV-NH2),0.08,0.00398,42442,158,3973
CC(C)C[C@H](NC(=O)[C@H](Cc1ccccc1)NC(=O)[C@H](CCCNC(=N)N)NC(=O)[C@H](CCC(N)=O)NC(=O)[C@H](CC(C)C)NC(=O)C(C)(C)NC(=O)[C@H](C)NC(=O)[C@H](CCC(=O)O)NC(=O)[C@H](CCC(=O)O)NC(=O)[C@H](Cc1c[nH]cn1)NC(=O)[C@H](CC(C)C)NC(=O)[C@H](Cc1ccc(O)cc1)NC(=O)[C@H](CO)NC(=O)[C@@H](NC(=O)[C@H](CC(=O)O)NC(=O)[C@H](CO)NC(=O)[C@@H](NC(=O)[C@H](Cc1ccccc1)NC(=O)[C@@H](NC(=O)CNC(=O)[C@H](CCC(=O)O)NC(=O)C(C)(C)NC(=O)[C@@H](N)Cc1c[nH]cn1)[C@@H](C)O)[C@@H](C)O)C(C)C)C(=O)N[C@@H](CCC(=O)O)C(=O)N[C@@H](CCCCNC(=O)COCCOCCNC(=O)COCCOCCNC(=O)CC[C@H](NC(=O)CCCCCCCCCCCCCCCCCCC(=O)O)C(=O)O)C(=O)N[C@@H](CC(C)C)C(=O)N[C@H](C(N)=O)C(C)C [compound 164] (H-H[Aib]EGTFTSDVSYLHEEA[Aib]LQRFLEK([AEEA-AEEA-γGlu-C20 diacid])LV-NH2),0.08,0.02,11362,251,4789

# Second part, the compound after the results:
Turbidity (pH 7) [1],EC50 [2] [nM],SCTR EC50/GLP1R EC50 ratio [2],EC50 [3] [nM],Fibril formation [4],SMILES
0.08,–,178176,126,4281,CC(C)C[C@H](NC(=O)[C@H](Cc1ccccc1)NC(=O)[C@H](CCCNC(=N)N)NC(=O)[C@H](CCC(N)=O)NC(=O)[C@@H](NC(=O)C(C)(C)NC(=O)[C@H](C)NC(=O)[C@H](CCC(=O)O)NC(=O)[C@H](CCC(=O)O)NC(=O)[C@H](CCCCNC(=O)COCCOCCNC(=O)COCCOCCNC(=O)CC[C@H](NC(=O)CCCCCCCCCCCCCCCCCCC(=O)O)C(=O)O)NC(=O)[C@H](CC(C)C)NC(=O)[C@H](Cc1ccc(O)cc1)NC(=O)[C@H](CO)NC(=O)[C@@H](NC(=O)[C@H](CC(=O)O)NC(=O)[C@H](CO)NC(=O)[C@@H](NC(=O)[C@H](Cc1ccccc1)NC(=O)[C@@H](NC(=O)CNC(=O)[C@H](CCC(=O)O)NC(=O)C(C)(C)NC(=O)[C@@H](N)Cc1c[nH]cn1)[C@@H](C)O)[C@@H](C)O)C(C)C)[C@@H](C)O)C(=O)N[C@@H](CCC(=O)O)C(=O)N[C@@H](Cc1c[nH]cn1)C(=O)N[C@@H](CC(C)C)C(=O)N[C@H](C(N)=O)C(C)C [compound 162] (H-H[Aib]EGTFTSDVSYLK([AEEA-AEEA-γGlu-C20 diacid])EEA[Aib]TQRFLEHLV-NH2)
0.08,0.0126,3669,39.8,3983,CC(C)C[C@H](NC(=O)[C@H](Cc1ccccc1)NC(=O)[C@H](CCCNC(=N)N)NC(=O)[C@H](CCC(N)=O)NC(=O)[C@H](CC(C)C)NC(=O)C(C)(C)NC(=O)[C@H](C)NC(=O)[C@H](CCC(=O)O)NC(=O)[C@H](CCC(=O)O)NC(=O)[C@H](CCCCNC(=O)COCCOCCNC(=O)COCCOCCNC(=O)CC[C@H](NC(=O)CCCCCCCCCCCCCCCCCCC(=O)O)C(=O)O)NC(=O)[C@H](CC(C)C)NC(=O)C(C)(C)NC(=O)[C@H](CO)NC(=O)[C@@H](NC(=O)[C@H](CC(=O)O)NC(=O)[C@H](CO)NC(=O)[C@@H](NC(=O)[C@H](Cc1ccccc1)NC(=O)[C@@H](NC(=O)CNC(=O)[C@H](CCC(=O)O)NC(=O)C(C)(C)NC(=O)[C@@H](N)Cc1c[nH]cn1)[C@@H](C)O)[C@@H](C)O)C(C)C)C(=O)N[C@@H](CCC(=O)O)C(=O)N[C@@H](Cc1c[nH]cn1)C(=O)N[C@@H](CC(C)C)C(=O)N[C@H](C(N)=O)C(C)C [compound 163] (H-H[Aib]EGTFTSDVS[Aib]LK([AEEA-AEEA-γGlu-C20 diacid])EEA[Aib]LQRFLEHLV-NH2)
0.08,0.00631,1693,10,4038,CC(C)C[C@H](NC(=O)[C@H](Cc1ccccc1)NC(=O)[C@H](CCCNC(=N)N)NC(=O)[C@H](CCC(N)=O)NC(=O)[C@H](CC(C)C)NC(=O)C(C)(C)NC(=O)[C@H](C)NC(=O)[C@H](CCC(=O)O)NC(=O)[C@H](CCC(=O)O)NC(=O)[C@H](CCCCNC(=O)COCCOCCNC(=O)COCCOCCNC(=O)CC[C@H](NC(=O)CCCCCCCCCCCCCCCCCCC(=O)O)C(=O)O)NC(=O)[C@H](CC(C)C)NC(=O)[C@@H](NC(=O)[C@H](CO)NC(=O)[C@@H](NC(=O)[C@H](CC(=O)O)NC(=O)[C@H](CO)NC(=O)[C@@H](NC(=O)[C@H](Cc1ccccc1)NC(=O)[C@@H](NC(=O)CNC(=O)[C@H](CCC(=O)O)NC(=O)C(C)(C)NC(=O)[C@@H](N)Cc1c[nH]cn1)[C@@H](C)O)[C@@H](C)O)C(C)C)[C@@H](C)O)C(=O)N[C@@H](CCC(=O)O)C(=O)N[C@@H](Cc1c[nH]cn1)C(=O)N[C@@H](CC(C)C)C(=O)N[C@H](C(N)=O)C(C)C [compound 165] (H-H[Aib]EGTFTSDVSTLK([AEEA-AEEA-γGlu-C20 diacid])EEA[Aib]LQRFLEHLV-NH2)

# Reference: patent publication US20260201008A1, “SECRETIN-DERIVED GLP1R SELECTIVE AGONISTS” (GUBRA A/S, priority 2023, published 2026)
